From patent US8952024B2, “Herbicidal pyrimidone derivatives” (E I du Pont de Nemours and Company, priority 2009, dated 2015)

What was measured:
Format in all cases: in vivo
[1] = tested on: umbrella sedge (Cyperus difformis); experiment: Test B flooded paddy test; details: for Plant response rating, Flood, Sedge, Umbrella: 250 g ai/ha, flooded paddy test, visual rating on 0 to 100 scale (0 no effect, 100 complete control) after 13 to 15 days; for Plant response rating, Sedge, Umbrella: Flood (flooded paddy test), 62 g ai/ha, 13 to 15 days
How it was run: (§1)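 Greenhouse-held for 13 to 15 days, treated pots were compared visually with controls and scored 0–100 (0, no effect). Treatment had been made into paddy water kept at 3 cm above the soil, with plants at the 2-leaf stage.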

[2] = tested on: ducksalad (Heteranthera limosa); experiment: Test B flooded paddy test; details: for Plant response rating, Flood, Ducksalad: 250 g ai/ha, flooded paddy test, visual rating on 0 to 100 scale (0 no effect, 100 complete control) after 13 to 15 days; for Plant response rating, Ducksalad: Flood (flooded paddy test), 62 g ai/ha, 13 to 15 days
How it was run: as §1

rice (Oryza sativa) = experiment: Test B flooded paddy test; details: for Plant response rating, Flood, Rice: 250 g ai/ha, flooded paddy test, visual rating on 0 to 100 scale (0 no effect, 100 complete control) after 13 to 15 days; for Plant response rating, Rice: Flood (flooded paddy test), 62 g ai/ha, 13 to 15 days
How it was run: as §1

[3] = tested on: barnyardgrass (Echinochloa crus-galli); experiment: Test B flooded paddy test; details: for Plant response rating, Flood, Barnyardgrass: 250 g ai/ha, flooded paddy test, visual rating on 0 to 100 scale (0 no effect, 100 complete control) after 13 to 15 days; for Plant response rating, Barnyardgrass: Flood (flooded paddy test), 62 g ai/ha, 13 to 15 days
How it was run: as §1

corn (Zea mays) = experiment: Test A pre-/postemergence plant response
How it was run: (§2)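 Greenhouse trial, ~10 days. Soil (loam/sand) sprayed preemergence after seeding; emerged plants (1–2 leaf, 2–10 cm) sprayed postemergence in parallel. Response = visual injury vs untreated control, 0–100.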

[4] = tested on: pigweed (Amaranthus retroflexus); experiment: Test A pre-/postemergence plant response
How it was run: as §2

[5] = tested on: velvetleaf (Abutilon theophrasti); experiment: Test A pre-/postemergence plant response
How it was run: as §2

[6] = tested on: wheat (Triticum aestivum); experiment: Test A pre-/postemergence plant response
How it was run: as §2

[7] = tested on: morningglory (Ipomoea spp.); experiment: Test A pre-/postemergence plant response
How it was run: as §2

[8] = tested on: giant foxtail (Setaria faberii); experiment: Test A pre-/postemergence plant response
How it was run: as §2

[9] = tested on: large crabgrass (Digitaria sanguinalis); experiment: Test A pre-/postemergence plant response
How it was run: as §2

[10] = tested on: barnyardgrass (Echinochloa crus-galli); experiment: Test A pre-/postemergence plant response
How it was run: as §2

[11] = scale 0 to 100, 0 is no effect, 100 is complete control
[12] = Postemergence, 125 g ai/ha, visual injury, 0 to 100 scale (0 no effect, 100 complete control), approx. ten days
[13] = Postemergence, 500 g ai/ha, 0 to 100 scale, 0 = no effect, 100 = complete control, approx. ten days
[14] = Preemergence, 125 g ai/ha, 0 to 100 scale, 0 = no effect, 100 = complete control
[15] = Preemergence, 500 g ai/ha, visual injury, 0 to 100 scale (0 no effect, 100 complete control), approx. ten days
[16] = scale of 0 to 100 where 0 is no effect and 100 is complete control
[17] = Postemergence, 125 g ai/ha, 0 to 100 scale where 0 is no effect and 100 is complete control
[18] = Postemergence, 500 g ai/ha, visual injury, 0 to 100 scale (0 no effect, 100 complete control), approx. ten days
[19] = Preemergence, 500 g ai/ha, 0 to 100 scale, 0 = no effect, 100 = complete control

O=C1CCCC(O)=C1C(=O)c1cnc(-c2ccccc2)n(-c2ccccc2F)c1=O [Compound 26]
80: Plant response rating, Morningglory [7, 13] | Plant response rating, Barnyardgrass [10, 13]
10: Plant response rating, Morningglory [7, 14]
60: Plant response rating, Pigweed [4, 14] | Plant response rating, Barnyardgrass [10, 15]
90: Pigweed plant response rating [4, 12] | Plant response rating, Foxtail, Giant [8, 13] | Plant response rating, Crabgrass, Large [9, 13] | Plant response rating, Crabgrass, Large [9, 15]
20: Plant response rating, Corn (corn (Zea mays); [13]) | Plant response rating, Velvetleaf [5, 14] | Plant response rating, Crabgrass, Large [9, 14]
50: Morningglory plant response rating [7, 12] | Foxtail, Giant plant response rating [8, 12]
85: Plant response rating, Flood, Sedge, Umbrella [1] | Plant response rating, Flood, Ducksalad [2]
75: Plant response rating, Sedge, Umbrella [1, 11] | Plant response rating, Ducksalad [2, 11]
30: Plant response rating, Foxtail, Giant [8, 14] | Barnyardgrass plant response rating [10, 12]
0: Plant response rating, Flood, Rice (rice (Oryza sativa)) | Plant response rating, Rice (rice (Oryza sativa); [11]) | Plant response rating, Flood, Barnyardgrass [3] | Plant response rating, Barnyardgrass [3, 11] | Corn plant response rating (corn (Zea mays); [12]) | Plant response rating, Corn (corn (Zea mays); [14]) | Plant response rating, Corn (corn (Zea mays); [15]) | Wheat plant response rating [6, 12] | Plant response rating, Wheat [6, 13] | Plant response rating, Wheat [6, 14] | Plant response rating, Wheat [6, 15] | Plant response rating, Barnyardgrass [10, 14]
100: Plant response rating, Pigweed [4, 13] | Plant response rating, Pigweed [4, 15] | Velvetleaf plant response rating [5, 12] | Plant response rating, Velvetleaf [5, 13] | Plant response rating, Velvetleaf [5, 15]
70: Plant response rating, Morningglory [7, 15] | Plant response rating, Foxtail, Giant [8, 15] | Crabgrass, Large plant response rating [9, 12]

COCCn1c(-c2cccc(C)c2)ncc(C(=O)C2=C(O)C3CCC(C3)C2=O)c1=O (stereo not drawn) [Compound 233]
65: Plant response rating, Flood, Barnyardgrass [3]
30: Plant response rating, Barnyardgrass [10, 14]
100: Plant response rating, Flood, Ducksalad [2] | Plant response rating, Ducksalad [2, 16] | Plant response rating, Pigweed [4, 17] | Pigweed plant response rating [4, 18] | Plant response rating, Pigweed [4, 19] | Plant response rating, Velvetleaf [5, 17] | Velvetleaf plant response rating [5, 18] | Plant response rating, Morningglory [7, 17] | Morningglory plant response rating [7, 18] | Plant response rating, Crabgrass, Large [9, 19] | Plant response rating, Barnyardgrass [10, 19]
85: Plant response rating, Flood, Sedge, Umbrella [1]
25: Plant response rating, Rice (rice (Oryza sativa); [16])
90: Plant response rating, Morningglory [7, 19] | Plant response rating, Foxtail, Giant [8, 17] | Foxtail, Giant plant response rating [8, 18] | Plant response rating, Crabgrass, Large [9, 17] | Crabgrass, Large plant response rating [9, 18] | Plant response rating, Barnyardgrass [10, 17] | Barnyardgrass plant response rating [10, 18]
70: Plant response rating, Sedge, Umbrella [1, 16] | Plant response rating, Pigweed [4, 14]
0: Plant response rating, Corn (corn (Zea mays); [14]) | Plant response rating, Corn (corn (Zea mays); [19]) | Plant response rating, Wheat [6, 14]
40: Plant response rating, Wheat [6, 19] | Plant response rating, Crabgrass, Large [9, 14]
60: Plant response rating, Corn (corn (Zea mays); [17]) | Plant response rating, Velvetleaf [5, 14] | Wheat plant response rating [6, 18]
50: Plant response rating, Flood, Rice (rice (Oryza sativa)) | Plant response rating, Morningglory [7, 14]
80: Corn plant response rating (corn (Zea mays); [18]) | Plant response rating, Velvetleaf [5, 19] | Plant response rating, Foxtail, Giant [8, 19]
20: Plant response rating, Barnyardgrass [3, 16] | Plant response rating, Wheat [6, 17] | Plant response rating, Foxtail, Giant [8, 14]

COCCCn1c(-c2cccc(Br)c2)ncc(C(=O)C2=C(O)CCCC2=O)c1=O [Compound 140]
60: Plant response rating, Barnyardgrass [10, 14]
0: Plant response rating, Rice (rice (Oryza sativa); [16]) | Plant response rating, Corn (corn (Zea mays); [17]) | Plant response rating, Corn (corn (Zea mays); [14]) | Plant response rating, Corn (corn (Zea mays); [15]) | Plant response rating, Wheat [6, 17] | Plant response rating, Wheat [6, 13] | Plant response rating, Wheat [6, 14] | Plant response rating, Wheat [6, 15]
20: Plant response rating, Barnyardgrass [3, 16] | Plant response rating, Corn (corn (Zea mays); [13])
30: Plant response rating, Morningglory [7, 14]
85: Plant response rating, Flood, Sedge, Umbrella [1] | Plant response rating, Flood, Ducksalad [2]
75: Plant response rating, Sedge, Umbrella [1, 16]
40: Plant response rating, Flood, Rice (rice (Oryza sativa)) | Plant response rating, Foxtail, Giant [8, 14]
70: Plant response rating, Crabgrass, Large [9, 14]
80: Plant response rating, Pigweed [4, 14] | Plant response rating, Velvetleaf [5, 14] | Plant response rating, Foxtail, Giant [8, 17]
45: Plant response rating, Flood, Barnyardgrass [3]
90: Plant response rating, Pigweed [4, 17] | Plant response rating, Foxtail, Giant [8, 13] | Plant response rating, Foxtail, Giant [8, 15] | Plant response rating, Crabgrass, Large [9, 17] | Plant response rating, Crabgrass, Large [9, 13] | Plant response rating, Crabgrass, Large [9, 15] | Plant response rating, Barnyardgrass [10, 17] | Plant response rating, Barnyardgrass [10, 13]
50: Plant response rating, Ducksalad [2, 16] | Plant response rating, Morningglory [7, 15]
100: Plant response rating, Pigweed [4, 13] | Plant response rating, Pigweed [4, 15] | Plant response rating, Velvetleaf [5, 17] | Plant response rating, Velvetleaf [5, 13] | Plant response rating, Velvetleaf [5, 15] | Plant response rating, Morningglory [7, 17] | Plant response rating, Morningglory [7, 13] | Plant response rating, Barnyardgrass [10, 15]
